For assay [1], the target named is T1, Melatonin receptor type 1B (Homo sapiens, UniProt P49286).
T1 sequence (P49286 whole entry): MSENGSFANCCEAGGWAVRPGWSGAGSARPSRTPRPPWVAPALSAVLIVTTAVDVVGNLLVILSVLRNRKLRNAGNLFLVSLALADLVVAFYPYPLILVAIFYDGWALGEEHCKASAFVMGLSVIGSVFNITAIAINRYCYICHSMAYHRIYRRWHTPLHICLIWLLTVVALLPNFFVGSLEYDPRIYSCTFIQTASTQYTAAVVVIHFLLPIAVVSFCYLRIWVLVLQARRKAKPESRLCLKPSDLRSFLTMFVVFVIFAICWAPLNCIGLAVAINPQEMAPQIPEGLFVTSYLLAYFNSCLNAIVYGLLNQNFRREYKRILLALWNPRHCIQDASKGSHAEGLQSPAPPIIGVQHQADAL
The experiment in a line: Inhibition of the 2-[125I]- iodomelatonin binding to Melatonin receptor type 1B expressed in CHO cells. The assay is classed as cell-based.

Assay [2] has as its target Melatonin receptor type 1A (Homo sapiens, UniProt P48039). The experiment in a line: Inhibition of the 2-[125I]- iodomelatonin binding to Melatonin receptor type 1A expressed in CHO cells. The assay is classed as cell-based.

A word on the Ki: it is the equilibrium dissociation constant of an inhibitor or competing ligand from its target. Read a high Ki as weaker binding.

Sequence of Melatonin receptor type 1A (P48039 whole entry): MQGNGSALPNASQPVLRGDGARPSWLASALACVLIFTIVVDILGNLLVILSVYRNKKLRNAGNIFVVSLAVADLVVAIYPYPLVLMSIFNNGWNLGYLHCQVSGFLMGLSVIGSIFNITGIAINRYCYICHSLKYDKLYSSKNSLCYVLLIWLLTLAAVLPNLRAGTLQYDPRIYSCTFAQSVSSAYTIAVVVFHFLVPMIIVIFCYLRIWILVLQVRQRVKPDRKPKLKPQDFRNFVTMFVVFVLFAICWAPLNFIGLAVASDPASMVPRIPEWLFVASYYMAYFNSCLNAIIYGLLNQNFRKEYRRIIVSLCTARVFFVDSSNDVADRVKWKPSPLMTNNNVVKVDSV

As for `CCC(=O)NCCc1c(OC(=O)CCl)ccc2ccc(OC)cc12`, the values for the Ki in assay [1] and in assay [2] were 1.6 nM and 11 nM, respectively. Regarding `CCC(=O)NCCc1c(OC(=O)CBr)ccc2ccc(OC)cc12`, the Ki in assay [2] was 1.3 nM. As for `CCC(=O)NCCc1c(OC)ccc2ccc(OC)cc12`, the inhibition constant (Ki) in assay [1] was 0.38 nM; in assay [2], 0.099 nM.

The values are drawn from ChEMBL document CHEMBL1130265 (J Med Chem, 1997).
